One may read the IC50 as the concentration at which inhibition is half-maximal.

Experimental findings from patent publication US20250152585A1, “PHARMACEUTICAL COMPOUND” (Duke Street Bio Limited, priority 2022, published 2025) are described below.

Molecules are shown by their SMILES. Read-outs that look alike come from different tables or passages of the source. Bounds are passed on as bounds.

The target of assay [1] is T1, full length N-terminally FLAG-tagged PARP1 (Homo sapiens, UniProt P09874). The assay is described as follows: PARP1 biochemical DELFIA assay (auto-PARylation). Set-up: recombinant full length human N-terminally FLAG-tagged PARP1.
T1 sequence (P09874 whole entry): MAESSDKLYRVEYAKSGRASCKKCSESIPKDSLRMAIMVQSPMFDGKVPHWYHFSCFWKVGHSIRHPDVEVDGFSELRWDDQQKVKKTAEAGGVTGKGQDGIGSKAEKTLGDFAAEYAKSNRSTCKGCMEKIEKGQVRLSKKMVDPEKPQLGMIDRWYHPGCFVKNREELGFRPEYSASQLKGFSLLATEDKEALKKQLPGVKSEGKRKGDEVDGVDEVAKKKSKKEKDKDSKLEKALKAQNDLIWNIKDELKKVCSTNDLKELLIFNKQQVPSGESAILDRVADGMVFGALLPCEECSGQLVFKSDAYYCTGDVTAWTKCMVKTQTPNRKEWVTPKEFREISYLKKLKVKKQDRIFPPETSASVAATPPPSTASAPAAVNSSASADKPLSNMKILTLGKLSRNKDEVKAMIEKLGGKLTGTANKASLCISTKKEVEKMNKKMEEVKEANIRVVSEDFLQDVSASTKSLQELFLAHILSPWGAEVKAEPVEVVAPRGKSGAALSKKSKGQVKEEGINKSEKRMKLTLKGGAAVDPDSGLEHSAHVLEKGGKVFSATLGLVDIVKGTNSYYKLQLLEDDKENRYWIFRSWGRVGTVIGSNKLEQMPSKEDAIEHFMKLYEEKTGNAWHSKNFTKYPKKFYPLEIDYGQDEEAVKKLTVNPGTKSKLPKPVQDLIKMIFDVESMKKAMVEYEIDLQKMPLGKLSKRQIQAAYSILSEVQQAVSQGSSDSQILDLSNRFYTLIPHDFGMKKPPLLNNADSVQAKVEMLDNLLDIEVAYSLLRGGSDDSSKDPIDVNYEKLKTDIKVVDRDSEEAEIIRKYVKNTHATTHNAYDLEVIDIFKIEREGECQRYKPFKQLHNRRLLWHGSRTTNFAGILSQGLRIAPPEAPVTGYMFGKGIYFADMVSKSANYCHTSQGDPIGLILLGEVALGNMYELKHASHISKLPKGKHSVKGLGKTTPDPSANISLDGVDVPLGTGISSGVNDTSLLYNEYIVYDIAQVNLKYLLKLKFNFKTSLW
Assay [2] concerns the target T1, full length N-terminally FLAG-tagged PARP1. Put plainly: PARP1 probe displacement HTRF assay. The settings on record: for Selectivity: PARP1 over PARP2, ratio Kd (PARP2)/Kd (PARP1); for Kd: binned Kd. For orientation: In TR-FRET formats the signal depends on donor and acceptor labels being close together.
Assay [3] addresses T2, N-terminally FLAG-tagged PARP2 (amino acids 1-583) (Homo sapiens, UniProt Q9UGN5).
T2 construct: N-terminally FLAG-tagged PARP2 (amino acids 1-583)
Put plainly: PARP2 probe displacement HTRF assay. It counts as binding. The settings on record: binned Kd. How it is done:
Data analysis was performed identical as for PARP1.

Where [4] appears, read: binned IC50, biochemical auto-PARylation assay.
Where [5] appears, read: read-out: PARP1 HTRF, probe displacement HTRF.
Setting [6] is: binned IC50, PARP1 biochemical DELFIA assay.
[7] abbreviates: read-out: PARP1 HTRF, PARP1 probe displacement HTRF.

T2 sequence (Q9UGN5 whole entry, the tested form may be a part): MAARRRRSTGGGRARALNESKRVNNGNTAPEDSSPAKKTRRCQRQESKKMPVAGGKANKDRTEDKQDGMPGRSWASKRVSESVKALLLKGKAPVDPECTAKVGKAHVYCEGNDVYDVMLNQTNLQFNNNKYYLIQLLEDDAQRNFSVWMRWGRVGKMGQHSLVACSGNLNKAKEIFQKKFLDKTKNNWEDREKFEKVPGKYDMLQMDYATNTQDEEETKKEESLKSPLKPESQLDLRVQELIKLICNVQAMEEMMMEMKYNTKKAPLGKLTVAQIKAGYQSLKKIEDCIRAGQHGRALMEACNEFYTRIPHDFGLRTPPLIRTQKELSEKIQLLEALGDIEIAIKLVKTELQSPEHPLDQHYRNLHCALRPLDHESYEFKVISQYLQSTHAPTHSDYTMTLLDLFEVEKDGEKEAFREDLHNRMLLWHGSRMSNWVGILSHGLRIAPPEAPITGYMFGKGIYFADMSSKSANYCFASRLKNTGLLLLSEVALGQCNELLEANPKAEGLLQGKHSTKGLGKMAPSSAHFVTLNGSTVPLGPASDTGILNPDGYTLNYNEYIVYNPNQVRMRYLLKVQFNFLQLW

For the compound `CNC(=O)c1ccc(N2CCC(N3CC4(c5nc6ccccc6c(=O)[nH]5)CCC3C4)CC2)cn1` (single isomer, unassigned) [Compound 245b], the IC50 in assay [1] (setting [4]) fell in the range of 10 to 100 nM. Further, the Selectivity entry in assay [2] (probe displacement HTRF) is “+++ (+++ indicate a value of at least 100)”. Moreover, the Kd in assay [2] (setting [5]) was 10 to 100 nM; in assay [3] (probe displacement HTRF), above 10000 nM.
Regarding `N#Cc1nc(C(=O)NC2CC2)ccc1N1CCC(N2CCC(c3cc4cccc(F)c4c(=O)[nH]3)C2)CC1` (single isomer, unassigned) [Compound 410a], in assay [1] (setting [4]), the half-maximal inhibitory concentration (IC50) is below 10 nM. Besides, the Selectivity result in assay [2] (probe displacement HTRF) is given as “+++ (+++ indicate a value of at least 100)”. Moreover, the Kd was below 10 nM in assay [2] (setting [5]) and 100 to 1000 nM in assay [3] (probe displacement HTRF).
In the case of `CNC(=O)c1ccc(N2CCC(N3CCC(c4nc5cc(F)ccc5c(=O)[nH]4)C3)CC2)cn1` (single isomer, unassigned) [Compound 92a], in assay [1] (setting [6]), the IC50 fell in the range of 100 to 1000 nM. Moreover, the Selectivity result in assay [2] (probe displacement HTRF) is on record as “+ (+ indicates a value of 10 to less than 50)”. In addition, the values for the Kd in assay [2] (setting [7]) and in assay [3] (PARP2 probe displacement HTRF) were 100 to 1000 nM and above 10000 nM, respectively.
Turning to `CNC(=O)c1ccc(N2CCC(N3CCC(c4cc5c(F)cncc5c(=O)[nH]4)C3)CC2)cn1` (single isomer, unassigned) [Compound 331b], the IC50 in assay [1] (setting [4]) is 10 to 100 nM. Also, in assay [2] (probe displacement HTRF), the Selectivity result is on record as “+++ (+++ indicate a value of at least 100)”. The Kd fell in the range of 10 to 100 nM in assay [2] (setting [5]) and 1000 to 10000 nM in assay [3] (probe displacement HTRF).
Take `CNC(=O)c1ccc(N2CCC(N3CCC(c4ccc(CC5CC5)c(=O)[nH]4)C3)CC2)cn1` (single isomer, unassigned) [Compound 213b]: the IC50 in assay [1] (setting [6]) is below 10 nM. Further, the Selectivity result in assay [2] (probe displacement HTRF) was “+++ (+++ indicate a value of at least 100)”. The Kd is below 10 nM in assay [2] (setting [7]) and 100 to 1000 nM in assay [3] (PARP2 probe displacement HTRF).
On to `CCNC(=O)c1ccc(N2CCC(N3CCC(c4ccc(CC)c(=O)[nH]4)C3)CC2)cn1` (racemic) [Compound 171rac], for which the IC50 in assay [1] (setting [6]) is below 10 nM. In addition, in assay [2] (probe displacement HTRF), the Selectivity entry is given as “+++ (+++ indicate a value of at least 100)”. The Kd was below 10 nM in assay [2] (setting [7]) and 100 to 1000 nM in assay [3] (PARP2 probe displacement HTRF).
For the compound `CNC(=O)c1ccc(N2CCC(N3CCC(c4cnc(C)c(=O)[nH]4)C3)CC2)cn1` (racemic) [Compound 127rac], in assay [1] (setting [6]), the IC50 was 10 to 100 nM. Moreover, the Selectivity entry in assay [2] (probe displacement HTRF) is reported as “+++ (+++ indicate a value of at least 100)”. Besides, the Kd in assay [2] (setting [7]) was 10 to 100 nM; in assay [3] (PARP2 probe displacement HTRF), above 10000 nM.
With `CNC(=O)c1ccc(N2CCC(n3cc(-c4nc5ccccc5c(=O)[nH]4)cn3)CC2)cn1` [Compound 17, N-methyl-5-(4-(4-(4-oxo-3,4-dihydroquinazolin-2-yl)-1H-pyrazol-1-yl)piperidin-1-yl)picolinamide], in assay [1] (setting [6]), the IC50 was in the range of 10 to 100 nM. Besides, the Kd in assay [2] (PARP1 HTRF, PARP1 probe displacement HTRF) was 10 to 100 nM; in assay [3] (PARP2 probe displacement HTRF), above 10000 nM. Also, the Selectivity result in assay [2] (probe displacement HTRF) is “+++ (+++ indicate a value of at least 100)”.
Regarding `CNC(=O)c1ccc(N2CCC(N3CCC(c4nc5ccccc5c(=O)[nH]4)C3)CC2)c(C)n1` (single isomer, unassigned) [Compound 125b], in assay [1] (setting [6]), the IC50 is below 10 nM. Further, the Selectivity result in assay [2] (probe displacement HTRF) is listed as “+++ (+++ indicate a value of at least 100)”. Besides, the Kd was below 10 nM in assay [2] (setting [7]) and 1000 to 10000 nM in assay [3] (PARP2 probe displacement HTRF).
Take `CNS(=O)(=O)c1ccc(N2CCC(N3CCC(c4cc5ccccc5c(=O)[nH]4)C3)CC2)cc1` (single isomer, unassigned) [Compound 346a]: the IC50 in assay [1] (setting [4]) is below 10 nM. In addition, the Selectivity entry in assay [2] (probe displacement HTRF) is recorded as “+++ (+++ indicate a value of at least 100)”. The Kd was below 10 nM in assay [2] (setting [5]) and 1000 to 10000 nM in assay [3] (probe displacement HTRF).
Take `CNC(=O)c1cc(N2CCC(N3CCC(c4cc5ccccc5c(=O)[nH]4)C3)CC2)cs1` (racemic) [Compound 296rac]: the concentration for half-maximal inhibition (IC50) in assay [1] (setting [4]) is below 10 nM. In addition, in assay [2] (probe displacement HTRF), the Selectivity result is recorded as “+ (+ indicates a value of 10 to less than 50)”. Besides, the Kd is below 10 nM in assay [2] (setting [5]) and 100 to 1000 nM in assay [3] (probe displacement HTRF).
As for `O=C(NCC(F)F)c1ccc(N2CCC(N3CCC(c4cc5ccc(F)cc5c(=O)[nH]4)C3)CC2)c(F)n1` (single isomer, unassigned) [Compound 399a], the 50% inhibitory concentration (IC50) in assay [1] (setting [4]) is below 10 nM. Besides, the Selectivity entry in assay [2] (probe displacement HTRF) is reported as “+++ (+++ indicate a value of at least 100)”. Further, the Kd in assay [2] (setting [5]) is below 10 nM; in assay [3] (probe displacement HTRF) it was 100 to 1000 nM.
Regarding `CNC(=O)c1ccc(N2CCC(N3CC4(c5nc6ccncc6c(=O)[nH]5)CC3C4)CC2)c(F)n1` [Compound 305], the half-inhibitory concentration (IC50) in assay [1] (setting [4]) is below 10 nM. The Kd is below 10 nM in assay [2] (PARP1 HTRF, probe displacement HTRF) and above 10000 nM in assay [3] (probe displacement HTRF). For the same compound, in assay [2] (probe displacement HTRF), the Selectivity entry is “+++ (+++ indicate a value of at least 100)”.
On to `O=C(NCC(F)(F)F)c1ccc(N2CCC(N3CCCC(c4nc5ccccc5c(=O)[nH]4)C3)CC2)cn1` (single isomer, unassigned) [Compound 115a], for which, in assay [1] (setting [6]), the IC50 was in the range of 100 to 1000 nM. The Selectivity result in assay [2] (probe displacement HTRF) is reported as “+ (+ indicates a value of 10 to less than 50)”. The Kd in assay [2] (setting [7]) lay within 100 to 1000 nM; in assay [3] (PARP2 probe displacement HTRF), 1000 to 10000 nM.
As to `CC(=O)Nc1ccc(N2CCC(N3CCC(c4cc5ccccc5c(=O)[nH]4)C3)CC2)cn1` (single isomer, unassigned) [Compound 306b], the half-maximal inhibitory concentration (IC50) in assay [1] (setting [4]) is below 10 nM. For the same compound, the Selectivity result in assay [2] (probe displacement HTRF) is given as “+++ (+++ indicate a value of at least 100)”. Further, the results for the Kd in assay [2] (setting [5]) and in assay [3] (probe displacement HTRF) were below 10 nM and 100 to 1000 nM, respectively.
For `CNC(=O)c1ccc(N2CCC(N3CCC(c4ccc(CC5CC5)c(=O)[nH]4)C3)CC2)c(F)n1` (single isomer, unassigned) [Compound 313a], the IC50 in assay [1] (setting [4]) lay within 10 to 100 nM. Further, the Selectivity entry in assay [2] (probe displacement HTRF) is listed as “+++ (+++ indicate a value of at least 100)”. Also, the Kd is 10 to 100 nM in assay [2] (setting [5]) and above 10000 nM in assay [3] (probe displacement HTRF).
Consider `CNC(=O)c1ccc(N2CCC(N3CCCC(c4nc5c(F)cccc5c(=O)[nH]4)C3)CC2)cn1` (single isomer, unassigned) [Compound 114b], for which, in assay [1] (setting [6]), the 50% inhibitory concentration (IC50) was 100 to 1000 nM. The Selectivity result in assay [2] (probe displacement HTRF) is reported as “+ (+ indicates a value of 10 to less than 50)”. In addition, the Kd in assay [2] (setting [7]) fell in the range of 100 to 1000 nM; in assay [3] (PARP2 probe displacement HTRF) it was 1000 to 10000 nM.
As to `O=c1[nH]c(C2CCN(C3CCN(c4ccccc4)CC3)C2)nc2ccccc12` (single isomer, unassigned) [Compound 32a], the half-inhibitory concentration (IC50) in assay [1] (setting [6]) fell in the range of 10 to 100 nM. The Selectivity result in assay [2] (probe displacement HTRF) is listed as “+ (+ indicates a value of 10 to less than 50)”. Besides, the Kd in assay [2] (setting [7]) was 10 to 100 nM; in assay [3] (PARP2 probe displacement HTRF), 1000 to 10000 nM.
Regarding `CNC(=O)c1ccc(N2CCC(N3CCC(c4cc5c(F)ccc(F)c5c(=O)[nH]4)C3)CC2)cn1` (single isomer, unassigned) [Compound 180a], the IC50 in assay [1] (setting [6]) was below 10 nM. Besides, the Selectivity result in assay [2] (probe displacement HTRF) is reported as “+++ (+++ indicate a value of at least 100)”. In addition, the values for the Kd in assay [2] (setting [7]) and in assay [3] (PARP2 probe displacement HTRF) were below 10 nM and 1000 to 10000 nM, respectively.
Turning to `CNC(=O)c1ccc(N2CCC(N3CCC(c4[nH]c(=O)c5ccccc5c4Cl)C3)CC2)cn1` (single isomer, unassigned) [Compound 219a], the half-maximal inhibitory concentration (IC50) in assay [1] (setting [6]) is below 10 nM. The Selectivity entry in assay [2] (probe displacement HTRF) is “++ (++ indicates a value of 50 to less than 100)”. For the same compound, the results for the Kd in assay [2] (setting [7]) and in assay [3] (PARP2 probe displacement HTRF) were below 10 nM and 10 to 100 nM, respectively.
For `CNC(=O)c1ccc(N2CCC(N3CCC(c4nc5onc(C)c5c(=O)[nH]4)C3)CC2)cn1` (single isomer, unassigned) [Compound 149a], in assay [1] (setting [6]), the IC50 was 100 to 1000 nM. For the same compound, the Selectivity result in assay [2] (probe displacement HTRF) is “+ (+ indicates a value of 10 to less than 50)”. For the same compound, the Kd in assay [2] (setting [7]) is 100 to 1000 nM; in assay [3] (PARP2 probe displacement HTRF), above 10000 nM.
